Reference: EPA's ToxValDB 9.5 (doi:10.2903/j.efsa.2011.2087)
≈ marks a conversion by molar mass, not a printed value.

Legend:
Typhlodromus pyri = assay: LR50; higher = less toxic; conditions: acute; duration: 7 days; mortality
Pimephales promelas = conditions: chronic/long-term; duration: 272 days; growth
Cyprinodon variegatus = conditions: acute; duration: 96 hours; mortality
Apis mellifera = conditions: acute; duration: 96 hours; dermal; mortality
Tagia sp. = conditions: acute; duration: 14 days; mortality
Daphnia magna = conditions: chronic/long-term; duration: 21 days; reproduction
Oncorhynchus mykiss = conditions: acute; duration: 96 hours; mortality
Colinus virginianus = conditions: reproduction developmental
Bibionidae = conditions: chronic/long-term; duration: 28 days

SMILES: C#CCOS(=O)OC1CCCCC1Oc1ccc(C(C)(C)C)cc1 (stereo not drawn) [Propargite]
- LR50 (Typhlodromus pyri): 4.5 g/ha
- LD50 (Anas platyrhynchos; acute, oral, unspecified, mortality): > 4640 mg/kg
- NOEC (Anas platyrhynchos; reproductive): 13.5 mg/kg-day
- NOEC (Pimephales promelas): 0.0057 mg/L
- LC50 (Cyprinodon variegatus): 0.055 µg/mL (≈ 0.157 µM)
- LD50 (Apis mellifera): 47.9 µg/piece
- LC50 (Tagia sp.): 378 mg/kg
- NOEC (Daphnia magna): 0.009 mg/L
- LC50 (Oncorhynchus mykiss): 0.043 µg/mL (≈ 0.123 µM)
- NOEC (Colinus virginianus): 142 mg/kg-day
- LD50 (Rattus norvegicus; acute, oral, mortality): 2640 mg/kg-day
- NOEL (Rattus norvegicus; chronic): 6.3 mg/kg-day
- NOEC (Bibionidae): 0.32 mg/L
